Laboratory results taken from patent US12403121B2, “Anticancer rocaglamide derivatives” (priority 2018, dated 2025).

Key:
[1] = Saradhi et al. 2011; cited from earlier work
[2] = system: ST8814 NF1−/− MPNST cells; assay: 3-day resazurin cell proliferation assay, ST8814 MPNST cells; type: cell-based, human; conditions: Homo sapiens, ST88-14, 72 h, read-out: IC50 (nM) ST8814 NF1−/− MPNST cells
Method: (§1) The human MPNST cell lines, ST8814, STS26T, S462, T265, and luciferase-expressing ST8814-Luc, the human NF2-deficient meningioma cell line Ben-Men-1, the NJ2 mouse schwannoma cell line Sch10545, and primary human Schwann cells were propagated as previously described. Oblinger et al., Neuro-Oncol., 18:1265-1277 (2016). The Ewing sarcoma cell line A673 and the osteosarcoma cell lines, 143B and MG-63, were grown in Dulbecco's Modified Eagle's (DME) medium (Millipore-Sigma) supplemented with 10% fetal bovine serum (FBS; Atlanta Biological). The silvestrol-sensitive 697 and silvestrol-resistant 697-R pre-B acute lymphoblastic leukemia cells (Gupta et al., AAPS J., 13:357-364 (2011)), the Ewing sarcoma cell line TC32, the osteosarcoma cell lines, Saos2 and OS17, and the rhabdomyosarcoma cell line RD were cultivated in RPMI 1640 medium (Millipore-Sigma) plus 10% FBS.
(§2) Actively-growing cells were seeded in 96-well plates (Sarstedt) at 2,000 cells/well for Ben-Men-1 and RD cells, 30,000 cells/well for 697 and 697-R cells, and 4,000 cells/well for all other cell lines. The following day, cells were treated with various concentrations of each compound or and 0.05% of DMSO as the control for six days for MG-63 cells or three days for all remaining cell lines. Cell proliferation was assessed using resazurin assays and the IC50 value calculated. Cell cycle analysis was performed accordingly. Burns et al., Cancer Res., 73:792-803 (2013).
(§3) To search for compounds with better drug-like properties, the inventors conducted a side-by-side comparison of ten rocaglates lacking the dioxanyl ring with silvestrol for growth-inhibitory activity in a panel of MPNST, schwannoma, and meningioma cell lines, which they had previously shown to be sensitive to the antiproliferative action of silvestrol. […] The average IC50 value of each rocaglate was determined by 3-day resazurin proliferation assays. […] Further structure and activity comparison discerned some positions on the cyclopenta[b]benzofuran scaffold that affected the antiproliferative activity of rocaglates.

[3] = system: STS26T NF1+/+ MPNST cells; assay: 3-day resazurin cell proliferation assay, STS26T MPNST cells; type: cell-based, human; conditions: Homo sapiens, STS-26T, 72 h, read-out: IC50 (nM) STS26T NF1+/+ MPNST cells
Method: as §1, §2, §3

[4] = Kinghorn et al. 2016 and NCI Developmental Therapeutics Program study, same conditions; cited from earlier work
697 pre-B leukemia cells = assay: Cell proliferation, parental silvestrol-sensitive 697 leukemic cells; type: cell-based; conditions: 72 h, 3 days treatment
Method: (§4) FIGS. 3A-3C provide graphs showing that, unlike silvestrol, DDR and Roe inhibits proliferation of MDR1-overexpressing 697-R leukemic cells at IC50 values similar to parental silvestrol-sensitive 697 cells. Cell proliferation was measured on 697-R and parental 697 pre-B leukemia cells treated for 3 days with various concentrations of silvestrol (A), DDR (B), and Roc (C). Each treatment was performed in six replicates, and each experiment was repeated twice. Shown are representative dose-response growth inhibition curves from experiments for all three drugs that were run in parallel. The IC50 values for individual growth curves are shown in the graph insets.
(§5) The human MPNST cell lines, ST8814, STS26T, S462, T265, and luciferase-expressing ST8814-Luc, the human NF2-deficient meningioma cell line Ben-Men-1, the NJ2 mouse schwannoma cell line Sch10545, and primary human Schwann cells were propagated as previously described. Oblinger et al., Neuro-Oncol., 18:1265-1277 (2016). […]
(§6) Actively-growing cells were seeded in 96-well plates (Sarstedt) at 2,000 cells/well for Ben-Men-1 and RD cells, 30,000 cells/well for 697 and 697-R cells, and 4,000 cells/well for all other cell lines. […] Cell proliferation was assessed using resazurin assays and the IC50 value calculated. […]

[5] = system: Ben-Men-1 NF2−/− meningioma cells; assay: 3-day resazurin cell proliferation assay, Ben-Men-1 meningioma cells; type: cell-based, human; conditions: Homo sapiens, 72 h, read-out: IC50 (nM) Ben-Men-1 NF2−/− meningioma cells
Method: as §1, §2, §3

[6] = system: 697-R leukemic cells (overexpress MDR1/Pgp); assay: Cell proliferation, MDR1-overexpressing silvestrol-resistant 697-R leukemic cells; type: cell-based; conditions: MDR1, 72 h, read-out: IC50 in 697-R cells
Method: as §4, §5, §6

[7] = system: Sch10545 Nf2−/− schwannoma cells; assay: 3-day resazurin cell proliferation assay, Sch10545 schwannoma cells; type: cell-based, mouse; conditions: Mus musculus, 72 h, read-out: IC50 (nM) Sch10545 Nf2−/− schwannoma cells
Method: as §1, §2, §3

[8] = target: multidrug resistance 1 (MDR1) transporter (Homo sapiens, UniProt P08183); conditions: cited from earlier work

COC(=O)[C@H]1[C@@H](O)[C@@]2(O)c3c(OC)cc(O[C@@H]4O[C@@H]([C@H](O)CO)CO[C@H]4OC)cc3O[C@@]2(c2ccc(OC)cc2)[C@@H]1c1ccccc1 [Silvestrol, reference compound]
oral bioavailability [1]: less than 2% | IC50 [2]: 40 nM | IC50 [3]: 10 nM | pulmonary toxicity in dogs [4]: unexpected pulmonary toxicity | IC50 (697 pre-B leukemia cells): 3.5 nM | IC50 [5]: 10 nM | IC50 [6]: 26 nM | IC50 [7]: 70 nM | substrate for the MDR1 transporter [8]: substrate
